The target in assay [1] is T1, dopaminergic D2 receptor (Homo sapiens, UniProt P14416). As to the kind of experiment: Cellular functional assay, dopaminergic D2 receptor (agonism/antagonism). The assay is classed as cell-based. The settings on record: HEK293; for activation at 1 µM: agonist effect, percent of control specific agonist response (3 μM dopamine for control), 1×10^−6 M, D2S (h), HEK-293 cells, read-out: D2-ag [%]; for inhibition at 1 µM: read-out: D2-antag. [%]. The method, then:
(§1) The compounds were tested at the concentration of 1×10^−6M.
(§2) In the Tables ag refers to agonism, and antag to antagonism).
Target sequence in this assay (P14416 whole entry): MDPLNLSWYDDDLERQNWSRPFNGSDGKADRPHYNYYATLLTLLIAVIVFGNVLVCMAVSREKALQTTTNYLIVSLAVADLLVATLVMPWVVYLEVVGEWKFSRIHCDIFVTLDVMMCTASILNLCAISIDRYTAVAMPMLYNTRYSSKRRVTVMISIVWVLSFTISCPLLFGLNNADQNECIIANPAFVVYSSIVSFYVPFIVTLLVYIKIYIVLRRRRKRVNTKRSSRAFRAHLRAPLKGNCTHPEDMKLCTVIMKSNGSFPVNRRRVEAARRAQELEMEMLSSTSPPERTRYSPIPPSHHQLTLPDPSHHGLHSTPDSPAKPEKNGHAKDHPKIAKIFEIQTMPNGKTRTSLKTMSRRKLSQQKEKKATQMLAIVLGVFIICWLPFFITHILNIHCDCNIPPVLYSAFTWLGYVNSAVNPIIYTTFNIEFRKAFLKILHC

In assay [2] the target is T2, muscarinic M3 receptor (Homo sapiens, UniProt P20309).
T2 construct: expressed in transfected cells; host or cells: CHO cells
As to the kind of experiment: Binding assay M3 (h), [3H]4-DAMP, CHO cells. As to conditions: read-out: M3 [%]. The procedure, abridged:
(§3)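 Compounds were screened at 1×10^−6 M, and bound radioactivity was measured by scintillation counting. Specific binding equals total binding minus nonspecific binding obtained with an excess of unlabelled ligand.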

The target of assay [3] is T3, serotoninergic 5-HT2A receptor (Homo sapiens, UniProt P28223). As to the kind of experiment: Cellular functional assay, serotoninergic 5-HT2A receptor (agonism/antagonism). Type of assay: cell-based. The settings on record: for activation at 1 µM: read-out: 5-HT2A -ag [%]; for inhibition at 1 µM: read-out: 5-HT2A -antag [%]. The procedure:
(§4) […]. The compounds were tested at the concentration of 1×10^−6M.
(§5) Conditions and methodology (by reference to the literature) of cellular functional assays are given in Table 13 and the tests results for representative compounds are given in Table 14 (dopaminergic receptor D2), in Table 15 (dopaminergic receptor D3), in Table 16 (serotoninergic receptor 5-HT1A), in Table 17 (serotoninergic receptor 5-HT2A), in Table 18 (serotoninergic receptor 5-HT6), in Table 19 (serotoninergic receptor 5-HT7), in Table 20 (adrenergic α1 receptor), in Table 21 (adrenergic α2C receptor), in Table 22 (histaminergic H1 receptor) and in Table 23 (serotoninergic 5-HT2C receptor). In the Tables ag refers to agonism, and antag to antagonism).

Assay [4] has as its target serotoninergic 5-HT7 receptor (Homo sapiens, UniProt P34969). As to the kind of experiment: Cellular functional assay, serotoninergic 5-HT7 receptor (agonism/antagonism). The assay is classed as cell-based. The settings on record: for activation at 1 µM: agonist effect, percent of control specific agonist response, compounds tested at 1×10^−6M, read-out: 5-HT7-ag [%]; for inhibition at 1 µM: read-out: 5-HT7-antag. [%]. The method, then: as §1, §2

Assay [5] addresses T4, adrenergic α2C receptor (Homo sapiens, UniProt P18825).
T4 sequence (P18825 1-462): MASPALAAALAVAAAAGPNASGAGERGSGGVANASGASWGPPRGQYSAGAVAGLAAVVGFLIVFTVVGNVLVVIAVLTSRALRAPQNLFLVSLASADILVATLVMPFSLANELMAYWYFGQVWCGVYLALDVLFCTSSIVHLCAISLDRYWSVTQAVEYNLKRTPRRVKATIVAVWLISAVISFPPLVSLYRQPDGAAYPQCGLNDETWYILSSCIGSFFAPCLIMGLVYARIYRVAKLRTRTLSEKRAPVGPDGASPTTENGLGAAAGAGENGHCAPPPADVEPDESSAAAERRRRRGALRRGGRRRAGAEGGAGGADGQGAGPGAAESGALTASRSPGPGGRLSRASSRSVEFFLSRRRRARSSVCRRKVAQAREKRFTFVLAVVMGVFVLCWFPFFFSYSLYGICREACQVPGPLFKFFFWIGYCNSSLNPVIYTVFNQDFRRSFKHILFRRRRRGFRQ
As to the kind of experiment: Binding assay α2C (h), [3H]RX 821002, CHO cells. On the set-up: expressed in transfected cells; host or cells: CHO cells. The settings on record: read-out: α2C [%]. A digest of the protocol: as §3

In assay [6] the target is T3, serotoninergic 5-HT2A receptor. As to the kind of experiment: Binding assay 5-HT2A (h), [3H]ketanserin, HEK-293 cells. Further details: expressed in transfected cells; host or cells: HEK-293 cells. The settings on record: read-out: 5-HT2A. A digest of the protocol:
as §3

Assay [7] deals with T5, serotonine transporter (SERT) receptor (Homo sapiens, UniProt P31645).
T5 construct: expressed in transfected cells; host or cells: CHO cells
As to the kind of experiment: Binding assay SERT (h), [3H]imipramine, CHO cells. As to conditions: read-out: SERT [%]. A digest of the protocol: as §3

Assay [8] has as its target dopaminergic D3 receptor (Homo sapiens, UniProt P35462). As to the kind of experiment: Cellular functional assay, dopaminergic D3 receptor (agonism/antagonism). The assay is classed as cell-based. The settings on record: for inhibition at 1 µM: CHO, read-out: D3-antag. [%]; for activation at 1 µM: agonist effect, percent of control specific agonist response (300 nM dopamine for control), 1×10^−6 M, D3 (h), CHO cells, read-out: D3-ag [%]. The method, then:
as §1, §2

The target in assay [9] is T6, adrenergic α1A receptor (Homo sapiens, UniProt P35348).
T6 sequence (P35348 1-466): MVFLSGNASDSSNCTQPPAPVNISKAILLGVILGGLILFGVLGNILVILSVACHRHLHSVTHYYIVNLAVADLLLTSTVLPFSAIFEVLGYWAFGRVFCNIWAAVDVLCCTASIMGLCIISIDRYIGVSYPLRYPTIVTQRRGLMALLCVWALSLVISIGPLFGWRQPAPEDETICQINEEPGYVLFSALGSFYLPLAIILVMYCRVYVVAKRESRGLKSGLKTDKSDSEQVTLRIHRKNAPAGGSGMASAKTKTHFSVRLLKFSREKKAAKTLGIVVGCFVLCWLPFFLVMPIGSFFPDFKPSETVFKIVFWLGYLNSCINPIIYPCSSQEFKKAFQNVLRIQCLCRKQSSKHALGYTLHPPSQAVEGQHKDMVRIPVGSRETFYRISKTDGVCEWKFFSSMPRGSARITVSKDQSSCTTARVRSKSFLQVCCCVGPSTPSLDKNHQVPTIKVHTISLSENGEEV
As to the kind of experiment: Cellular functional assay, adrenergic α1A receptor (agonism/antagonism). As to conditions: for activation at 1 µM: agonist effect, percent of control specific agonist response, compounds tested at 1×10^−6M, read-out: α1A -ag [%]; for inhibition at 1 µM: read-out: α1A -antag. [%]. Type of assay: cell-based. The method, then: as §4, §5

For assay [10], the target named is T1, dopaminergic D2 receptor. As to the kind of experiment: Binding assay D2S (h), [3H]methyl-spiperone, HEK-293 cells. On the set-up: expressed in transfected cells; host or cells: HEK-293 cells. As to conditions: read-out: D2 [%]. The procedure, abridged: as §3
Target sequence in this assay (P14416 1-414 isoform P14416-2): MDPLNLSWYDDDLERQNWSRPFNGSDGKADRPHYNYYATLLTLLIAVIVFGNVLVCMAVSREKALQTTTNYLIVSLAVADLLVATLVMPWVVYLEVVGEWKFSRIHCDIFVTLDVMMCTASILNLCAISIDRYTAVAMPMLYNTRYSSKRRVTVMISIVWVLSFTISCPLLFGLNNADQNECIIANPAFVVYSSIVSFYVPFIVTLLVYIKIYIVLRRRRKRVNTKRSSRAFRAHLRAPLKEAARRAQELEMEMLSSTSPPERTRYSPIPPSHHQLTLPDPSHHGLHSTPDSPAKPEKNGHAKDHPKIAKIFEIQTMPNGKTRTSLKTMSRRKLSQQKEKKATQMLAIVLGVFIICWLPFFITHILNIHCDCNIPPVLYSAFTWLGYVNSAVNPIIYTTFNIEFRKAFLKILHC
Assay [11] deals with T4, adrenergic α2C receptor. As to the kind of experiment: Cellular functional assay, adrenergic α2C receptor (agonism/antagonism). The assay is classed as cell-based. As to conditions: for activation at 1 µM: agonist effect, percent of control specific agonist response, compounds tested at 1×10^−6M, read-out: α2C −ag [%]; for inhibition at 1 µM: read-out: α2C −antag. [%]. The procedure:
as §1, §2

The target of assay [12] is serotoninergic 5-HT6 receptor (Homo sapiens, UniProt P50406). As to the kind of experiment: Cellular functional assay, serotoninergic 5-HT6 receptor (agonism/antagonism). The assay is classed as cell-based. As to conditions: for activation at 1 µM: agonist effect, percent of control specific agonist response, compounds tested at 1×10^−6M, read-out: 5-HT6-ag [%]; for inhibition at 1 µM: read-out: 5-HT6-antag. [%]. The procedure:
as §1, §2

Structures are written as SMILES.

T2 sequence (P20309 whole entry): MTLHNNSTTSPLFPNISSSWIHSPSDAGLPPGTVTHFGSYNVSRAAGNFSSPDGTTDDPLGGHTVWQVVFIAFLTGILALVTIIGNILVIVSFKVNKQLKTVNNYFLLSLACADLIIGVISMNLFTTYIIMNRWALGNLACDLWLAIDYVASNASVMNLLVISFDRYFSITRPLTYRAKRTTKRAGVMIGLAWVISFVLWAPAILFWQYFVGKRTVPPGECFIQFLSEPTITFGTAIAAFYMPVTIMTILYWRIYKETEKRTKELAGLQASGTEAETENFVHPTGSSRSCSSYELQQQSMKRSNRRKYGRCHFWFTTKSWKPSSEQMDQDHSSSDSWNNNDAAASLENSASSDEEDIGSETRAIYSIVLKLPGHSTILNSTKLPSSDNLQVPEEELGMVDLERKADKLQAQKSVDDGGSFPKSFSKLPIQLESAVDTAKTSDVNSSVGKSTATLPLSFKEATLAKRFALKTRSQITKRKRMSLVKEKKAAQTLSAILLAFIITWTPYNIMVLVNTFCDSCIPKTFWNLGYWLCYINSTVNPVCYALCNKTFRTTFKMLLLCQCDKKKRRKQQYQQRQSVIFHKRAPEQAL
T5 sequence (P31645 whole entry): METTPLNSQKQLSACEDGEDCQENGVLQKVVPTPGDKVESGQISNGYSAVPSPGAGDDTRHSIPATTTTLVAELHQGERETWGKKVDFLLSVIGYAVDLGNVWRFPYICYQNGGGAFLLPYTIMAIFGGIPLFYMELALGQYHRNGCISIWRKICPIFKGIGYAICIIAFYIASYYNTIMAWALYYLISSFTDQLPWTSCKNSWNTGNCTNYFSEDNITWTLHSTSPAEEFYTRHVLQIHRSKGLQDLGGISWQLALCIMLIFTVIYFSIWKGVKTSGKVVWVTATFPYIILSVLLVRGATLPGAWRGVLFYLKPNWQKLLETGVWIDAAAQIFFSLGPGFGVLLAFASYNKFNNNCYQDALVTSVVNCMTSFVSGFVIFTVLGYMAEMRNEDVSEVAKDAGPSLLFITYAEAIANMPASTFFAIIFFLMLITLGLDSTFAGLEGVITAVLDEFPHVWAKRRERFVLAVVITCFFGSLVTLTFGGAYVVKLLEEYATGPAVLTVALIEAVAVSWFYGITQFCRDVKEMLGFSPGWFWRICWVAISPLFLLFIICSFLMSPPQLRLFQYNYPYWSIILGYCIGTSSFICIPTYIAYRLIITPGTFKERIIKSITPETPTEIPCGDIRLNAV
dopaminergic D3 receptor, sequence (P35462 whole entry): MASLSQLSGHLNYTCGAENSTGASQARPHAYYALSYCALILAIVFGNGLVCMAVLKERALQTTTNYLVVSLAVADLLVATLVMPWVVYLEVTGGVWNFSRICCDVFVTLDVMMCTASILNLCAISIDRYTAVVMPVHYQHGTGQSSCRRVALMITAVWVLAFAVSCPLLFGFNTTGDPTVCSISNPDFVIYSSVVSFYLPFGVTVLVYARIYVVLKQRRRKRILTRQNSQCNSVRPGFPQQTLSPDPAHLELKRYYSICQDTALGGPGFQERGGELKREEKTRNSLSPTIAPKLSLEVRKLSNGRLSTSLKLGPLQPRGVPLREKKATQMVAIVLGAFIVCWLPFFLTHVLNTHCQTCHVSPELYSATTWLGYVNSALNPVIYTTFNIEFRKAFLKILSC
serotoninergic 5-HT6 receptor, sequence (P50406 whole entry): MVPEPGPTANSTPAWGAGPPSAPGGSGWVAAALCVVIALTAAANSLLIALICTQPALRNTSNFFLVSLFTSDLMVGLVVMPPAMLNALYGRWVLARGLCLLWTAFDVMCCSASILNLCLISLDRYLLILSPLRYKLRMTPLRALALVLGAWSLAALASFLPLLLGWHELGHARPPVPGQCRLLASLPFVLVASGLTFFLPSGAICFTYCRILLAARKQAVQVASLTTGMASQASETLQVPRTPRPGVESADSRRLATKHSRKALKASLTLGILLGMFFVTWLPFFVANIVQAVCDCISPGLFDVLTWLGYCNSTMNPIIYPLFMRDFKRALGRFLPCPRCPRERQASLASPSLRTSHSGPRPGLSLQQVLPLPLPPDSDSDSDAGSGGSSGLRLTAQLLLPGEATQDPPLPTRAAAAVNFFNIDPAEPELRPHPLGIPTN
serotoninergic 5-HT7 receptor, sequence (P34969 whole entry): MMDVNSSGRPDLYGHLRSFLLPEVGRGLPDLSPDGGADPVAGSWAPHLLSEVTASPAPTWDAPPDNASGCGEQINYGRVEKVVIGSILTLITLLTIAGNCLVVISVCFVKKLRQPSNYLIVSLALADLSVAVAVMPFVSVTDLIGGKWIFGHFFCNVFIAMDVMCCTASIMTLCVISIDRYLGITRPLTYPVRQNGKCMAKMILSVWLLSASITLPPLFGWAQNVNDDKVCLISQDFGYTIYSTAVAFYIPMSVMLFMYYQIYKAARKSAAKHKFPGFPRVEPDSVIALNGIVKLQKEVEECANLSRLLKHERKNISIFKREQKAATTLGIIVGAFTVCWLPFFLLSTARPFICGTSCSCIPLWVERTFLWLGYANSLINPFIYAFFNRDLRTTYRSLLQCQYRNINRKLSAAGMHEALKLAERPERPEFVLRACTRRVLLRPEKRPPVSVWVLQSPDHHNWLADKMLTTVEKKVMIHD
T3 sequence (P28223 whole entry): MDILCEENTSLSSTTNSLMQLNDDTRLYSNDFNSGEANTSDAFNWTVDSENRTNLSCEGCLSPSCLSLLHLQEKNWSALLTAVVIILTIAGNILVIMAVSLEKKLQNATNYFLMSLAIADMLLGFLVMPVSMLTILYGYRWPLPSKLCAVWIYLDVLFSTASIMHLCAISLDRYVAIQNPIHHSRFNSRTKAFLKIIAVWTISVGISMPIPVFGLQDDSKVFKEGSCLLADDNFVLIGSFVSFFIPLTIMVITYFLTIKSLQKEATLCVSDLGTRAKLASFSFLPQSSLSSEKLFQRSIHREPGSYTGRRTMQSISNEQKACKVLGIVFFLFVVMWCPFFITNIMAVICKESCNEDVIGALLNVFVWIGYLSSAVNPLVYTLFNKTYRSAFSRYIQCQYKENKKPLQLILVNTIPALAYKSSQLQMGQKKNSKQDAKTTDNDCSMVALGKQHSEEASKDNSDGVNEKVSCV

For the molecule `O=S(=O)(NCCCCN1CCN(c2cccc3[nH]ccc23)CC1)c1ccc2ccccc2c1` [Compound 26, N-{4-[4-(1H-Indol-4-yl)piperazin-1-yl]butyl}naphthalene-2-sulphonamide], the activation at 1 µM is 29% in assay [1]; -1% in assay [3]; 14% in assay [4]; 64% in assay [8]; 0% in assay [9]; 25% in [11]. Further, the inhibition at 1 µM was found to be 99% in assay [1]; 17% in assay [2]; 77% in assay [3]; 13% in assay [4]; 100% in [5]; 98% in assay [6]. For the same molecule, the inhibition at 1 µM in [7] is 14%; in assay [8], -8%; in assay [9] it was 100%; in assay [10] it was 97%; in [11], 53%.

Turning to `O=S(=O)(NCCCCN1CCN(c2noc3ccccc23)CC1)c1c[nH]c2ncccc12` [Compound 89, N-[4-[4-(1,2-Benzoxazol-3-yl)piperazin-1-yl]butyl]-1H-pyrrolo[2,3-b]pyridine-3-sulphonamide], the inhibition at 1 µM was 22% in assay [2]; 83% in assay [12]; 94% in [3]; 91% in [4]; 98% in [5]; 99% in assay [6]. In addition, the inhibition at 1 µM in assay [7] was 2%; in assay [8] it was 69%; in assay [9], 100%; in [10] it was 89%; in assay [11], 7%. Besides, the activation at 1 µM in [12] was 0%; in assay [3] it was -2%; in assay [4], -2%; in assay [8], -18%; in [9], -1%; in assay [11], -10%.

For the molecule `O=S(=O)(NCCCCN1CCN(c2noc3ccccc23)CC1)c1cccc2ccccc12` [Compound 13, N-(4-(4-(1,2-Benzoxazol-3-yl)piperazin-1-yl)butyl)naphthalene-1-sulphonamide], the activation at 1 µM was 2% in assay [1]; 1% in assay [12]; 2% in assay [3]; 1% in assay [4]; 0% in assay [9]; -7% in assay [11]. The inhibition at 1 µM is 95% in [1]; -1% in assay [2]; 56% in assay [12]; 100% in assay [3]; 95% in [4]; 99% in assay [5]. Besides, the inhibition at 1 µM in [6] is 100%; in assay [7] it was 7%; in [9], 100%; in assay [10], 99%; in [11], 18%.

`O=c1[nH]c2ccc(S(=O)(=O)NCCCCN3CCN(c4noc5ccccc45)CC3)cc2o1` [Compound 16, N-(4-(4-(1,2-Benzoxazol-3-yl)piperazin-1-yl)butyl)-2-oxo-3H-1,3-benzoxazole-6-sulphonamide]: the activation at 1 µM in assay [1] was 4%; in [12], 0%; in assay [3], -1%; in [4], -1%; in [9], 0%; in [11] it was -7%. Further, the inhibition at 1 µM in [1] was 98%; in [2] it was -1%; in [12] it was 50%; in assay [3], 98%; in assay [4], 80%; in assay [5], 101%. Besides, the inhibition at 1 µM in assay [6] was 100%; in assay [7], -3%; in assay [9] it was 100%; in [10] it was 99%; in assay [11] it was 9%.

As for `O=S(=O)(NCCCCN1CCN(c2cccc3[nH]ccc23)CC1)c1ccc2cc(Cl)ccc2c1` [Compound 358, 6-Chloro-N-[4-[4-(1H-indol-4-yl)piperazin-1-yl]butyl]naphthalene-2-sulphonamide], the activation at 1 µM in assay [1] was 30%; in assay [3] it was -1%; in [4], 10%; in assay [8], 47%; in assay [11], 28%. In addition, the inhibition at 1 µM amounted to 84% in [1]; 17% in assay [2]; 57% in assay [3]; 28% in assay [4]; 101% in assay [5]; 99% in [6]. The inhibition at 1 µM was determined as 40% in assay [7], 35% in assay [8], 96% in assay [10] and 48% in [11].

Consider `O=S(=O)(NCCCCN1CCN(c2cccc3[nH]ccc23)CC1)c1cnc2ccccn12` [Compound 30, N-{4-[4-(1H-Indol-4-yl)piperazin-1-yl]butyl}-imidazo[1,2-a]pyridine-3-sulphonamide], for which the activation at 1 µM in assay [1] came to 43%; in assay [4], 5%; in assay [8], 52%; in assay [9] it was 0%; in assay [11] it was 18%. Further, the inhibition at 1 µM in assay [1] was 97%; in assay [2], 66%; in assay [4], 73%; in [5] it was 99%; in [6] it was 67%; in [7], 14%. Further, the inhibition at 1 µM is 35% in assay [8], 97% in assay [9], 98% in assay [10] and 35% in assay [11].
